Experimental findings from ChEMBL document CHEMBL3259572, “Euodenine A: a small-molecule agonist of human TLR4” (J Med Chem, 2014) are described below.

In data set [1] the target is T1, Toll-like receptor 4 (Homo sapiens, UniProt O00206). Briefly: Agonist activity at human recombinant TLR4 expressed in HEK293 cells by SEAP reporter assay. In kind it is cell-based.
Data set [2] can be described thus: Cytotoxicity against human PBMC by WST-1 cell proliferation assay. Conditions: PBMC (peripheral blood mononuclear cells). In kind it is cell-based. In general terms: Tetrazolium dyes change colour on reduction, which living cells bring about.
Data set [3] relates to PBMC. As to the kind of experiment: Cytotoxicity against PHA-stimulated human PBMC at 20 uM by WST-1 cell proliferation assay. In kind it is cell-based.
Data set [4] concerns the target T1, Toll-like receptor 4. As to the kind of experiment: Agonist activity at chimeric extracellular domain of human TLR4 fused with human intracellular domain expressed in HEK293 cells by NFkappaB reporter assay. Type of data set: cell-based.
Data set [5] has as its target Toll-like receptor 5 (Homo sapiens) (UniProt O60602). Briefly: Agonist activity at human recombinant TLR5 expressed in HEK293 cells at 10 uM by SEAP reporter assay. Type of data set: cell-based. On the technique in general: A reporter such as luciferase makes a cellular process visible.
The target in data set [6] is T2, Toll-like receptor 7 (Homo sapiens) (UniProt Q9NYK1).
T2 sequence (whole entry): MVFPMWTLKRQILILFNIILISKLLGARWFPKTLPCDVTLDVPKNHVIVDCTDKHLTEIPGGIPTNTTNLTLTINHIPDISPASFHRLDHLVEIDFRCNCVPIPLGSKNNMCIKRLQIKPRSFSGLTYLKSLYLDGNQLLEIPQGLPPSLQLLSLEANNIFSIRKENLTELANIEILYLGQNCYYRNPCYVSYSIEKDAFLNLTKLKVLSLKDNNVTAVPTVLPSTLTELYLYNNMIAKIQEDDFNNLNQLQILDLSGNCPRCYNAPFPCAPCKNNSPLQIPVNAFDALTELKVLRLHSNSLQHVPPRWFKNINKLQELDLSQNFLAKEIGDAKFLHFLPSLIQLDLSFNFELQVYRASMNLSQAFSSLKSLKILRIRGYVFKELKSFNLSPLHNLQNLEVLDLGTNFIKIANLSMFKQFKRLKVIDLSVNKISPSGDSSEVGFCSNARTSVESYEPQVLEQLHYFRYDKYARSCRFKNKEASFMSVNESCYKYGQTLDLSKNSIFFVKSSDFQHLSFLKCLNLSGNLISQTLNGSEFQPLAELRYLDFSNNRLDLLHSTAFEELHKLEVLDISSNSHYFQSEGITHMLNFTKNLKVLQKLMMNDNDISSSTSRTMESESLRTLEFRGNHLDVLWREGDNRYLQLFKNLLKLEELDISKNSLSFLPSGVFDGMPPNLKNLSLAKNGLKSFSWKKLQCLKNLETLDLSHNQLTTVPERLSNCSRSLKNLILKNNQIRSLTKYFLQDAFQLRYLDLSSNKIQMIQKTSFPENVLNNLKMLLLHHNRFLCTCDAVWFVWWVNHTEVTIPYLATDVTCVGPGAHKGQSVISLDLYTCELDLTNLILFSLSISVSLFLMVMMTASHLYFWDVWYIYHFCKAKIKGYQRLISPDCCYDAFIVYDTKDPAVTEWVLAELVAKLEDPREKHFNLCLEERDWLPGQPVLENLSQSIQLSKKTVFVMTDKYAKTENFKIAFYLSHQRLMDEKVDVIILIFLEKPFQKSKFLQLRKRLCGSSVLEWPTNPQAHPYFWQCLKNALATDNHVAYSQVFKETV
As to the kind of experiment: Agonist activity at human recombinant TLR7 expressed in HEK293 cells at 10 uM by SEAP reporter assay. In kind it is cell-based.

The target of data set [7] is T1, Toll-like receptor 4. As to the kind of experiment: Agonist activity at human recombinant TLR4 expressed in HEK293 cells coexpressed with human MD2 assessed as TNFalpha response by NFkappaB reporter assay. In kind it is cell-based.
Data set [8] deals with T1, Toll-like receptor 4. Briefly: Agonist activity at human recombinant TLR4 expressed in HEK293 cells coexpressed with mouse MD2 assessed as TNFalpha response by NFkappaB reporter assay. In kind it is cell-based.
Data set [9] deals with PBMC. As to the kind of experiment: Induction of IL-12p40 production in human PBMC at 10 uM by ELISA. Type of data set: functional, cell-based.
For data set [10], the system named is PBMC. Briefly: Induction of IL-10 production in human PBMC at 10 uM by ELISA. In kind it is functional, cell-based. (In general: An ELISA detects its analyte on a solid surface through an enzyme-linked reagent.)
Data set [11] concerns PBMC. As to the kind of experiment: Induction of TNFalpha production in human PBMC at 10 uM by ELISA. In kind it is functional, cell-based.
The test system of data set [12] is PBMC. Briefly: Induction of IL-8 production in human PBMC at 10 uM by ELISA. In kind it is functional, cell-based.
The target of data set [13] is T1, Toll-like receptor 4. Briefly: Intrinsic activity at human recombinant TLR4 expressed in HEK293 cells by SEAP reporter assay relative to LPS. Type of data set: cell-based.
Data set [14] concerns the target T3, Toll-like receptor 9 (Homo sapiens) (UniProt Q9NR96).
T3 sequence (whole entry): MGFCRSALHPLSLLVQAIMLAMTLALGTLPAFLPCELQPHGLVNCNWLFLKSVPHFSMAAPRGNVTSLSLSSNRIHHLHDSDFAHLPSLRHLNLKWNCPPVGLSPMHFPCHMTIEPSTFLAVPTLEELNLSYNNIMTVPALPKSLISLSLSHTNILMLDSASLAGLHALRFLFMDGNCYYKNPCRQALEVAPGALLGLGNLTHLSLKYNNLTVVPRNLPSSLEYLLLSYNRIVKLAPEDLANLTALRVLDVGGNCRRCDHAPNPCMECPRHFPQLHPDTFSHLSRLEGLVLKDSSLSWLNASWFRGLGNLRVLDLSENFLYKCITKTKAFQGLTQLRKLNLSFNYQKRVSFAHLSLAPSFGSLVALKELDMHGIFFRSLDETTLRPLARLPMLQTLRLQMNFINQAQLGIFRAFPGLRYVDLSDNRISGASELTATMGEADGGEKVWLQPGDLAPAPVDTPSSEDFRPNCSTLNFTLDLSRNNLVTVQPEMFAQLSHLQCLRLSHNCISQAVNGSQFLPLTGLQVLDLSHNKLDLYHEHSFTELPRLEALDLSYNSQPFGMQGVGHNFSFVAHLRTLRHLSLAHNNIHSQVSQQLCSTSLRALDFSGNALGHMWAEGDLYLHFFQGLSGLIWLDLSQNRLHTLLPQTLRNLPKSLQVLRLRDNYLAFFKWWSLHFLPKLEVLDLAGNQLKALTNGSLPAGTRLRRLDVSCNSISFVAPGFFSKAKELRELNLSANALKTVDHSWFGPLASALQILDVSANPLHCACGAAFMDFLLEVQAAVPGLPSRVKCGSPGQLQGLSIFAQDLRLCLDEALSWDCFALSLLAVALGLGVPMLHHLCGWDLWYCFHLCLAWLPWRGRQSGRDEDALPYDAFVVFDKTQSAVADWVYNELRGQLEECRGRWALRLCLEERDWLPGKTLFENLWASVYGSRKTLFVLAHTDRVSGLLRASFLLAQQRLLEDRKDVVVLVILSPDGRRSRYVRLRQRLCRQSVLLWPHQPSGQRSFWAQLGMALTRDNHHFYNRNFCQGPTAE
As to the kind of experiment: Agonist activity at human recombinant TLR9 expressed in HEK293 cells at 10 uM by SEAP reporter assay. Type of data set: cell-based.

Active and inactive are the calls of the source. No cut-off for these calls is given here. Where only a bound is given, the exact number is not on record here.

T1 sequence (O00206 whole entry): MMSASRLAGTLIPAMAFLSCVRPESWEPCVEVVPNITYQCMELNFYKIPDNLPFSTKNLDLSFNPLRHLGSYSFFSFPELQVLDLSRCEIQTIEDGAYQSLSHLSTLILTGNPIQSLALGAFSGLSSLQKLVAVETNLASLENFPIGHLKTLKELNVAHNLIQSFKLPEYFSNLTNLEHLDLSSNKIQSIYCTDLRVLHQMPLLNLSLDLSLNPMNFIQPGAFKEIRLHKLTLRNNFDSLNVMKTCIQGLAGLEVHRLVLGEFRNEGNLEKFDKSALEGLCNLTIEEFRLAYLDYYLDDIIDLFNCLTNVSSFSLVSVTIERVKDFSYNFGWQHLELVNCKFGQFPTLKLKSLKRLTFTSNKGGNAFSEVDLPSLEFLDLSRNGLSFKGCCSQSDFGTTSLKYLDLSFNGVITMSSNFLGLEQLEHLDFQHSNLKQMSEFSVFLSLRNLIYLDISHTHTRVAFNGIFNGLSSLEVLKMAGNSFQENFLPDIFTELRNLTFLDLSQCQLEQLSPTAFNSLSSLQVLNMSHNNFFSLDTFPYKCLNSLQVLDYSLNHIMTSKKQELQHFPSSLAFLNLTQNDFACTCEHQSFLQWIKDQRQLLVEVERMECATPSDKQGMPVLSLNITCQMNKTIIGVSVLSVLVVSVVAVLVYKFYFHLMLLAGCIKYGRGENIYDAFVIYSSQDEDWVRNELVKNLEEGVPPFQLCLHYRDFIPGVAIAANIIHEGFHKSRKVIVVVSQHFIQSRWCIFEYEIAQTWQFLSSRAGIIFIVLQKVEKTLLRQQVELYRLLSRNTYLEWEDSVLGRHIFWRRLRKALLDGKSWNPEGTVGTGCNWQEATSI
Toll-like receptor 5 (Homo sapiens), sequence (O60602 whole entry): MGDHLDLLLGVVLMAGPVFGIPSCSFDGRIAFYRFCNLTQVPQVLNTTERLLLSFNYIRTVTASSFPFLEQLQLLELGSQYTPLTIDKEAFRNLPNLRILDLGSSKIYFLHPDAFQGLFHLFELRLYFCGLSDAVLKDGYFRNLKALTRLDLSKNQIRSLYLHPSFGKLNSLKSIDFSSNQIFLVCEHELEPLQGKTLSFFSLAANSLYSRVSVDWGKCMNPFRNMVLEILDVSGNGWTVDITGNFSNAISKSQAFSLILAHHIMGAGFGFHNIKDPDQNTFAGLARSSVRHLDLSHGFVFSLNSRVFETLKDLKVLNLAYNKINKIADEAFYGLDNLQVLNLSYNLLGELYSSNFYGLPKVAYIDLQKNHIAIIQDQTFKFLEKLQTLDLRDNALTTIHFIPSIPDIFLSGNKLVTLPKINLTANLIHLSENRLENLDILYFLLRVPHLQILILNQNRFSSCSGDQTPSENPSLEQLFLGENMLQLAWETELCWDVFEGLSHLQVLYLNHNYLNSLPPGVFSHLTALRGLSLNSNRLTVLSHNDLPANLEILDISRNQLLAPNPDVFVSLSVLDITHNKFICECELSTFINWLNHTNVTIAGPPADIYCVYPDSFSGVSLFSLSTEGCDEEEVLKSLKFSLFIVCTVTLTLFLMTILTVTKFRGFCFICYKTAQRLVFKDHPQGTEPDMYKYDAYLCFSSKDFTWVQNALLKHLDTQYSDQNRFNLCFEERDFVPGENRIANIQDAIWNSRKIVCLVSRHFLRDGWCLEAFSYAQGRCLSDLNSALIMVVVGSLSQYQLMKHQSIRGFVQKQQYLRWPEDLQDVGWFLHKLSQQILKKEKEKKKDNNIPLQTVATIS

For orientation: EC50 means the midpoint of the concentration-response curve. A word on the CC50: it is the concentration at which the toxic effect on the cells reaches its halfway point. A low value points to greater toxicity to the cells. Regarding `COc1cc([C@@H]2[C@@H](C)[C@H]3[C@@H]2c2c(c4ccccc4[nH]c2=O)OC3(C)C)cc(OC)c1OC`, on Toll-like receptor 4 [1], the EC50 is 3.9 µM. Further, in [2], the CC50 is over 33 µM. Also, the Activity result with PBMC [3] was “Non-toxic”. Further, the outcome at Toll-like receptor 4 [4], on Toll-like receptor 4 [7], in the data set with PBMC [9], in the data set on PBMC [10], in the data set with PBMC [11] and in the data set on PBMC [12] was Active. The outcome (in data set [5]; in data set [6]; on Toll-like receptor 4 [8]; in [14]) was inactive. Besides, the Intrinsic activity at Toll-like receptor 4 [13] was 0.95.
